# The supplement of paper PMC10307832
# Assays:
# Test in all cases: relative viability (nuclei count vs DMSO), 5 days (fraction); higher = more cells survive
# NCI-H2009 = tested on: NCI-H2009
# Procedure, shortened: (§1)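 Relative viability equals treated-well nuclei counts divided by vehicle-well nuclei counts. Counts came from 4× images of lung cancer cell lines grown in 1536-well plates for 5 days after pin-tool dosing on the day after seeding. Dosing used one drug alone or a fixed anchor-drug dose plus five library-drug doses (not always all listed) in √10 steps, and values are medians of duplicate plates.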
# LOU-NH91 = tested on: LOU-NH91
# Procedure, shortened: as §1
# NCI-H596 = tested on: NCI-H596
# Procedure, shortened: as §1
# LC-2-ad = tested on: LC-2-ad
# Procedure, shortened: as §1
# HCC-366 = tested on: HCC-366
# Procedure, shortened: as §1
# HCC-44 = tested on: HCC-44
# Procedure, shortened: as §1
# HCC-827 = tested on: HCC-827
# Procedure, shortened: as §1
# NCI-H661 = tested on: NCI-H661
# Procedure, shortened: as §1
# NCI-H2342 = tested on: NCI-H2342
# Procedure, shortened: as §1
# SK-LU-1 = tested on: SK-LU-1
# Procedure, shortened: as §1
# HARA = tested on: HARA
# Procedure, shortened: as §1
# BEN = tested on: BEN
# Procedure, shortened: as §1
# NCI-H1355 = tested on: NCI-H1355
# Procedure, shortened: as §1
# NCI-H2087 = tested on: NCI-H2087
# Procedure, shortened: as §1
# EKVX = tested on: EKVX
# Procedure, shortened: as §1
# SK-MES-1 = tested on: SK-MES-1
# Procedure, shortened: as §1
# NCI-H1792 = tested on: NCI-H1792
# Procedure, shortened: as §1
# NCI-H647 = tested on: NCI-H647
# Procedure, shortened: as §1
# NCI-H1437 = tested on: NCI-H1437
# Procedure, shortened: as §1
# NCI-H2170 = tested on: NCI-H2170
# Procedure, shortened: as §1
# NCI-H2228 = tested on: NCI-H2228
# Procedure, shortened: as §1
# NCI-H1734 = tested on: NCI-H1734
# Procedure, shortened: as §1
# NCI-H2405 = tested on: NCI-H2405
# Procedure, shortened: as §1
# NCI-H1395 = tested on: NCI-H1395
# Procedure, shortened: as §1
smiles,measurement,setting,value
C[C@@H]1CN(CC(=O)Nc2ccc3c(c2)Cc2cccc(-c4cc(=O)cc(N5CCOCC5)o4)c2S3)C[C@H](C)O1 + CC(=O)Nc1cccc(-n2c(=O)n(C3CC3)c(=O)c3c(Nc4ccc(I)cc4F)n(C)c(=O)c(C)c32)c1 [Trametinib] (partner 0.02 µM),relative viability,NCI-H2009; first compound 0.04 µM,0.259
same,relative viability,NCI-H2009; first compound 0.1265 µM,0.261
same,relative viability,NCI-H2009; first compound 0.4 µM,0.22
same,relative viability,NCI-H2009; first compound 4 µM,0.197
same,relative viability,LOU-NH91; first compound 0.04 µM,0.812
same,relative viability,LOU-NH91; first compound 0.1265 µM,0.788
same,relative viability,LOU-NH91; first compound 0.4 µM,0.717
same,relative viability,LOU-NH91; first compound 4 µM,0.715
same,relative viability,NCI-H596; first compound 0.04 µM,0.771
same,relative viability,NCI-H596; first compound 0.1265 µM,0.757
same,relative viability,NCI-H596; first compound 0.4 µM,0.725
same,relative viability,NCI-H596; first compound 4 µM,0.768
same,relative viability,LC-2-ad; first compound 0.04 µM,0.897
same,relative viability,LC-2-ad; first compound 0.1265 µM,0.867
same,relative viability,LC-2-ad; first compound 0.4 µM,0.892
same,relative viability,LC-2-ad; first compound 4 µM,0.854
same,relative viability,HCC-366; first compound 0.04 µM,0.43
same,relative viability,HCC-366; first compound 0.1265 µM,0.3
same,relative viability,HCC-366; first compound 0.4 µM,0.244
same,relative viability,HCC-366; first compound 4 µM,0.181
same,relative viability,HCC-44; first compound 0.04 µM,1.05
same,relative viability,HCC-44; first compound 0.1265 µM,1.03
same,relative viability,HCC-44; first compound 0.4 µM,1.1
same,relative viability,HCC-44; first compound 4 µM,1.03
same,relative viability,HCC-827; first compound 0.04 µM,0.541
same,relative viability,HCC-827; first compound 0.1265 µM,0.51
same,relative viability,HCC-827; first compound 0.4 µM,0.491
same,relative viability,HCC-827; first compound 4 µM,0.513
same,relative viability,NCI-H661; first compound 0.04 µM,0.481
same,relative viability,NCI-H661; first compound 0.1265 µM,0.552
same,relative viability,NCI-H661; first compound 0.4 µM,0.615
same,relative viability,NCI-H661; first compound 4 µM,0.507
same,relative viability,NCI-H2342; first compound 0.04 µM,0.806
same,relative viability,NCI-H2342; first compound 0.1265 µM,0.743
same,relative viability,NCI-H2342; first compound 0.4 µM,0.818
same,relative viability,NCI-H2342; first compound 4 µM,0.721
same,relative viability,SK-LU-1; first compound 0.04 µM,0.518
same,relative viability,SK-LU-1; first compound 0.1265 µM,0.454
same,relative viability,SK-LU-1; first compound 0.4 µM,0.477
same,relative viability,SK-LU-1; first compound 4 µM,0.447
same,relative viability,HARA; first compound 0.04 µM,0.785
same,relative viability,HARA; first compound 0.1265 µM,0.654
same,relative viability,HARA; first compound 0.4 µM,0.602
same,relative viability,HARA; first compound 4 µM,0.406
same,relative viability,BEN; first compound 0.04 µM,0.972
same,relative viability,BEN; first compound 0.1265 µM,0.99
same,relative viability,BEN; first compound 0.4 µM,1.14
same,relative viability,BEN; first compound 4 µM,1.03
same,relative viability,NCI-H1355; first compound 0.04 µM,0.452
same,relative viability,NCI-H1355; first compound 0.1265 µM,0.405
same,relative viability,NCI-H1355; first compound 0.4 µM,0.383
same,relative viability,NCI-H1355; first compound 4 µM,0.401
same,relative viability,NCI-H2087; first compound 0.04 µM,0.248
same,relative viability,NCI-H2087; first compound 0.1265 µM,0.224
same,relative viability,NCI-H2087; first compound 0.4 µM,0.16
same,relative viability,NCI-H2087; first compound 4 µM,0.184
same,relative viability,EKVX; first compound 0.04 µM,0.364
same,relative viability,EKVX; first compound 0.1265 µM,0.369
same,relative viability,EKVX; first compound 0.4 µM,0.349
same,relative viability,EKVX; first compound 4 µM,0.294
same,relative viability,SK-MES-1; first compound 0.04 µM,0.652
same,relative viability,SK-MES-1; first compound 0.1265 µM,0.53
same,relative viability,SK-MES-1; first compound 0.4 µM,0.463
same,relative viability,SK-MES-1; first compound 4 µM,0.405
same,relative viability,NCI-H1792; first compound 0.04 µM,0.422
same,relative viability,NCI-H1792; first compound 0.1265 µM,0.444
same,relative viability,NCI-H1792; first compound 0.4 µM,0.295
same,relative viability,NCI-H1792; first compound 4 µM,0.385
same,relative viability,NCI-H647; first compound 0.04 µM,0.565
same,relative viability,NCI-H647; first compound 0.1265 µM,0.415
same,relative viability,NCI-H647; first compound 0.4 µM,0.414
same,relative viability,NCI-H647; first compound 4 µM,0.251
same,relative viability,NCI-H1437; first compound 0.04 µM,0.47
same,relative viability,NCI-H1437; first compound 0.1265 µM,0.467
same,relative viability,NCI-H1437; first compound 0.4 µM,0.506
same,relative viability,NCI-H1437; first compound 4 µM,0.369
same,relative viability,NCI-H2170; first compound 0.04 µM,1.04
same,relative viability,NCI-H2170; first compound 0.1265 µM,0.931
same,relative viability,NCI-H2170; first compound 0.4 µM,0.877
same,relative viability,NCI-H2170; first compound 4 µM,0.847
same,relative viability,NCI-H2228; first compound 0.04 µM,0.575
same,relative viability,NCI-H2228; first compound 0.1265 µM,0.547
same,relative viability,NCI-H2228; first compound 0.4 µM,0.536
same,relative viability,NCI-H2228; first compound 4 µM,0.421
same,relative viability,NCI-H1734; first compound 0.04 µM,0.698
same,relative viability,NCI-H1734; first compound 0.1265 µM,0.756
same,relative viability,NCI-H1734; first compound 0.4 µM,0.632
same,relative viability,NCI-H1734; first compound 4 µM,0.788
same,relative viability,NCI-H2405; first compound 0.04 µM,0.7
same,relative viability,NCI-H2405; first compound 0.1265 µM,0.651
same,relative viability,NCI-H2405; first compound 0.4 µM,0.59
same,relative viability,NCI-H2405; first compound 4 µM,0.66
same,relative viability,NCI-H1395; first compound 0.1265 µM,1.11
same,relative viability,NCI-H1395; first compound 0.4 µM,0.824
same,relative viability,NCI-H1395; first compound 4 µM,0.97
